Patent publication US12685726B2, “Sulfoximines as inhibitors of NaV1.8” (Gruenenthal GmbH, priority 2022, dated 2026)

Target: T1, human NaV 1.8 (Homo sapiens, UniProt Q9Y5Y9)
T1 construct: expressed in transfected cells; host or cells: HEK (recombinant cell line)
Test: Automated whole-cell patch clamp (Qube384) voltage-clamp recordings of sodium currents in HEK-NaV1.8 cell line
Type: cell-based
Conditions: read-out: Potency category (human NaV 1.8 IC50)
Method in brief: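 HEK cells expressing NaV1.8 with b3, whole-cell automated voltage clamp at room temperature or 19° C.; CsF-based internal, pH 7.4 external. State-dependent (−120 mV, V1/2 4 s, −10 mV test pulses) and 10/20 Hz 40-pulse protocols; ~12 min compound, vehicle-corrected, IC50 by 4-parameter logistic fit.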

T1 sequence (Q9Y5Y9 whole entry): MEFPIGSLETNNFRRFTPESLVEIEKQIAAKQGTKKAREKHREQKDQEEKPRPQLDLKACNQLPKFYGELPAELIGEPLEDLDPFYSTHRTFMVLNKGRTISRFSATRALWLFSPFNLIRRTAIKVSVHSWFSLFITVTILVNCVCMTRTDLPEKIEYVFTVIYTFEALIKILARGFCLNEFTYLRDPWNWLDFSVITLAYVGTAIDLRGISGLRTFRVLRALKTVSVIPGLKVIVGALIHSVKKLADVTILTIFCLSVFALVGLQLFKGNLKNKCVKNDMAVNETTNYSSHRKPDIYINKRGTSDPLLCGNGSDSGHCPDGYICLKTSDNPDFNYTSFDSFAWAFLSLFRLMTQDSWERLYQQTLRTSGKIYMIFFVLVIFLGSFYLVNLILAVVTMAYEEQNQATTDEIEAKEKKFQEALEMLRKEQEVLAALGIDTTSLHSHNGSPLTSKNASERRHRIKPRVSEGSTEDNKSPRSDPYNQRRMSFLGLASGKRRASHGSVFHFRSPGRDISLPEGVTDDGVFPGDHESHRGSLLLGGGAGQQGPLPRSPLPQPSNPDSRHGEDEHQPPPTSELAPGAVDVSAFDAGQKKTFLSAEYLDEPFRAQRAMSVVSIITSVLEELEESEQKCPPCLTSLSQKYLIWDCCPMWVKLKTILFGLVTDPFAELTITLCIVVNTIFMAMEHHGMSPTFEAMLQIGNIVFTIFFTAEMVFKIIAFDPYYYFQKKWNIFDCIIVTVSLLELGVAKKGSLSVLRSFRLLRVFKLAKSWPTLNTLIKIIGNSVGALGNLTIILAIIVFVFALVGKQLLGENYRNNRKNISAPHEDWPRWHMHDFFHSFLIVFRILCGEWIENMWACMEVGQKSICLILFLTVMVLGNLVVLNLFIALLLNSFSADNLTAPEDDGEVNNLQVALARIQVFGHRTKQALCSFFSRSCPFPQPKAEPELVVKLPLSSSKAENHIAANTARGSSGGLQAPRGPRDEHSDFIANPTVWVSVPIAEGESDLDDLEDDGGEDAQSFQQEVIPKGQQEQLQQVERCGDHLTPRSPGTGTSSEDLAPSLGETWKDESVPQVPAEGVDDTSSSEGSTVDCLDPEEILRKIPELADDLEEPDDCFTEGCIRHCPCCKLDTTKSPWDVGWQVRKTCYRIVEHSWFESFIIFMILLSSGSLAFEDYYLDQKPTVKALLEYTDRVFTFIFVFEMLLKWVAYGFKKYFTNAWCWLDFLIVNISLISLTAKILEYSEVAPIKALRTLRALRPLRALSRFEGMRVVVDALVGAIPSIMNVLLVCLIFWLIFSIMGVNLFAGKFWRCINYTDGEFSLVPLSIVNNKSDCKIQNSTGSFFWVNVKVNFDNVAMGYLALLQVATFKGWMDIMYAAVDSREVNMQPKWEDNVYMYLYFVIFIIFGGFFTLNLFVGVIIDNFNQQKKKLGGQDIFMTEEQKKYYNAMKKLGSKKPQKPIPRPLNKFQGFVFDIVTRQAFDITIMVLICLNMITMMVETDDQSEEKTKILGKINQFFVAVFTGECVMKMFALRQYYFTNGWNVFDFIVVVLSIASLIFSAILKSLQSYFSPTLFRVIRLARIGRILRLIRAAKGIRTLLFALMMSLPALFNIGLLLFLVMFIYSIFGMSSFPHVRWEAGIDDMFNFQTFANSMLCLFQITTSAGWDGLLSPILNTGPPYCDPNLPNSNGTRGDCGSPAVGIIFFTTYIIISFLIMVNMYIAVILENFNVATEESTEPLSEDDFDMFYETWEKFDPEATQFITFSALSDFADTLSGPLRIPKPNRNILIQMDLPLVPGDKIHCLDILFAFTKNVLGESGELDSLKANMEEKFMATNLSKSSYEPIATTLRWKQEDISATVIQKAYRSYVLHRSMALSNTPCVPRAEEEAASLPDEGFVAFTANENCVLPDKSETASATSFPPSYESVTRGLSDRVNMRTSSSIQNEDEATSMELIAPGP

Compound | IC50
CS(=N)(=O)c1cc(NC(=O)c2c(C(F)(F)F)c(C34CC(C3)C4)nn2CC2C[C@@H]2C(F)(F)F)ccn1 (stereo partly drawn) [Example 147] | ≤ 100 nM
CS(=N)(=O)c1cc(NC(=O)c2c(C(F)(F)F)c(OC(F)F)nn2CC2CCC(F)(F)C2)ccn1 (stereo not drawn) [Example 33, 1-((3,3-Difluorocyclopentyl)methyl)-3-(difluoromethoxy)-N-(2-(S-methylsulfonimidoyl)pyridin-4-yl)-4-(trifluoromethyl)-1H-pyrazole-5-carboxamide] | ≤ 100 nM
C[C@@]1(Cn2nc(C3CC3)c(C(F)(F)F)c2C(=O)Nc2ccnc([S@](C)(=N)=O)c2)CC(F)(F)C12CC2 (single isomer, unassigned) [Example 92c, 3-cyclopropyl-1-((6,6-difluoro-4-methylspiro[2.3]hexan-4-yl)methyl)-N-(2-(S-methylsulfonimidoyl)pyridin-4-yl)-4-(trifluoromethyl)-1H-pyrazole-5-carboxamide] | ≤ 100 nM
C[C@@]1(Cn2nc(C3CC3)c(C(F)(F)F)c2C(=O)Nc2ccnc([S@@](C)(=N)=O)c2)CC(F)(F)C12CC2 (single isomer, unassigned) [Example 92d, 3-cyclopropyl-1-((6,6-difluoro-4-methylspiro[2.3]hexan-4-yl)methyl)-N-(2-(S-methylsulfonimidoyl)pyridin-4-yl)-4-(trifluoromethyl)-1H-pyrazole-5-carboxamide] | ≤ 100 nM
CC1(Cn2nc(C3(F)CC3)c(C(F)(F)F)c2C(=O)Nc2cc(F)cc(S(C)(=N)=O)c2)CC(F)(F)C1 (single isomer, unassigned) [Example 127b, 1-((3,3-Difluoro-1-methylcyclobutyl)methyl)-N-(3-fluoro-5-(S-methylsulfonimidoyl)phenyl)-3-(1-fluorocyclopropyl)-4-(trifluoromethyl)-1H-pyrazole-5-carboxamide] | ≤ 100 nM
C[S@@](=N)(=O)c1cccc(NC(=O)c2c(C(F)(F)F)c(C3(F)CC3)nn2CC2C[C@H]2C(F)(F)F)c1 (single isomer, unassigned) [Example 134c, 3-(1-Fluorocyclopropyl)-N-(3-(S-methylsulfonimidoyl)phenyl)-4-(trifluoromethyl)-1-(((trans)-2-(trifluoromethyl)cyclopropyl)methyl)-1H-pyrazole-5-carboxamide] | ≤ 100 nM
CS(=N)(=O)c1cc(NC(=O)c2c(C(F)(F)F)c(C3CC3)nn2CC2(F)CC3(CCC3)C2)ccn1 (single isomer, unassigned) [Example 21b, 3-cyclopropyl-1-((2-fluorospiro[3.3]heptan-2-yl)methyl)-N-(2-(S-methylsulfonimidoyl)pyridin-4-yl)-4-(trifluoromethyl)-1H-pyrazole-5-carboxamide] | ≤ 100 nM
Cc1c(C(C)(F)F)nn(C[C@H]2C[C@@H](C(F)(F)F)C2)c1C(=O)Nc1ccnc(S(C)(=N)=O)c1 (single isomer, unassigned) [Example 31b, 3-(1,1-difluoroethyl)-4-methyl-N-(2-(S-methylsulfonimidoyl)pyridin-4-yl)-1-(((cis)-3-(trifluoromethyl)cyclobutyl)methyl)-1H-pyrazole-5-carboxamide] | ≤ 100 nM
CC1(Cn2nc(C3(F)CC3)c(C(F)(F)F)c2C(=O)Nc2cccc(S(C)(=O)=NC(=O)C3COC3)c2)CC(F)(F)C1 (single isomer, unassigned) [Example 150b, 1-((3,3-Difluoro-1-methylcyclobutyl)methyl)-3-(1-fluorocyclopropyl)-N-(3-(S-methyl-N-(oxetane-3-carbonyl)sulfonimidoyl)phenyl)-4-(trifluoromethyl)-1H-pyrazole-5-carboxamide] | ≤ 100 nM

Second part, the molecule after the results:

IC50 | Compound
≤ 100 nM | CS(=N)(=O)c1cc(NC(=O)c2c(C(F)(F)F)c(C3CC3)nn2CC23CC(C(F)(F)F)(C2)C3)ccn1 (single isomer, unassigned) [Example 23a, 3-cyclopropyl-N-(2-(S-methylsulfonimidoyl)pyridin-4-yl)-4-(trifluoromethyl)-1-((3-(trifluoromethyl)bicyclo[1.1.1]pentan-1-yl)methyl)-1H-pyrazole-5-carboxamide]
≤ 100 nM | CC1(Cn2nc(C3CC3)c(C(F)(F)F)c2C(=O)Nc2ccnc(S(C)(=O)=NC[C@@H](O)CO)c2)CC(F)(F)C1 (stereo partly drawn) [Example 152, 3-Cyclopropyl-1-((3,3-difluoro-1-methylcyclobutyl)methyl)-N-(2-(N—((R)-2,3-dihydroxypropyl)-S-methylsulfonimidoyl)pyridin-4-yl)-4-(trifluoromethyl)-1H-pyrazole-5-carboxamide]
≤ 100 nM | CC1(Cn2nc(C3CC3)c(C(F)(F)F)c2C(=O)Nc2cnnc(S(C)(=N)=O)c2)CC(F)(F)C1 (single isomer, unassigned) [Example 47a, 3-cyclopropyl-1-((3,3-difluoro-1-methylcyclobutyl)methyl)-N-(6-(S-methylsulfonimidoyl)pyridazin-4-yl)-4-(trifluoromethyl)-1H-pyrazole-5-carboxamide]
≤ 100 nM | CC1(Cn2nc(C3(F)CC3)c(C(F)F)c2C(=O)Nc2ccc(F)c(S(C)(=N)=O)c2)CC(F)(F)C1 (single isomer, unassigned) [Example 133a, 1-((3,3-Difluoro-1-methylcyclobutyl)methyl)-4-(difluoromethyl)-N-(4-fluoro-3-(S-methylsulfonimidoyl)phenyl)-3-(1-fluorocyclopropyl)-1H-pyrazole-5-carboxamide]
≤ 100 nM | CC1(Cn2nc(C3(F)CC3)c(C(F)(F)F)c2C(=O)Nc2cccc([S@@](C)(=O)=NC(=O)CO)c2)CC(F)(F)C1 [Example 151a]
≤ 100 nM | CS(=N)(=O)c1cc(NC(=O)c2c(C(F)(F)F)c(C3CC3)nn2CC23CCC(F)(CC2)C3)ccn1 (single isomer, unassigned) [Example 106a, 3-cyclopropyl-1-((4-fluorobicyclo[2.2.1]heptan-1-yl)methyl)-N-(2-(S-methylsulfonimidoyl)pyridin-4-yl)-4-(trifluoromethyl)-1H-pyrazole-5-carboxamide]
≤ 100 nM | C[S@@](=N)(=O)c1cc(NC(=O)c2c(C(F)(F)F)c(C3CC3)nn2C[C@]2(C)C[C@@H](C(F)(F)F)C2)ccn1 (single isomer, unassigned) [Example 86c, 3-cyclopropyl-1-(((cis)-1-methyl-3-(trifluoromethyl)cyclobutyl)methyl)-N-(2-(S-methylsulfonimidoyl)pyridin-4-yl)-4-(trifluoromethyl)-1H-pyrazole-5-carboxamide]
≤ 100 nM | CS(=N)(=O)c1cc(NC(=O)c2c(C(F)(F)F)c(C3CC3)nn2CC2CCC(F)(F)C2)ccn1 (single isomer, unassigned) [Example 7b, 3-cyclopropyl-1-((3,3-difluorocyclopentyl)methyl)-N-(2-(S-methylsulfonimidoyl)pyridin-4-yl)-4-(trifluoromethyl)-1H-pyrazole-5-carboxamide]
≤ 100 nM | CC1(Cn2nc(C34CC(F)(C3)C4)c(C(F)F)c2C(=O)Nc2cccc(S(C)(=N)=O)c2)CC(F)(F)C1 (single isomer, unassigned) [Example 113b, 1-((3,3-Difluoro-1-methylcyclobutyl)methyl)-4-(difluoromethyl)-3-(3-fluorobicyclo[1.1.1]pentan-1-yl)-N-(3-(S-methylsulfonimidoyl)phenyl)-1H-pyrazole-5-carboxamide]
